Data set [1] concerns the target T1, Cholinesterase (Homo sapiens, UniProt P06276). Kind of data set: Inhibition of human plasma BChE by Ellman's method.
The next data set concerns the target Acetylcholinesterase (Homo sapiens, UniProt P22303). Description: Inhibition of human recombinant AChE by Ellman's method.
The nature of data set [2]: Stability in phosphate buffer at pH 7.4 after 90 mins by spectrophotometry. The note with it: pH 7.4, 1.5 h. It is filed as physicochemical.
The next data set deals with THP-1. Kind of data set: Cytotoxicity against human THP1 cells after 24 hrs by MTS assay. Format: cell-based.
In the next data set the test system is HepG2. Description: Cytotoxicity against human HepG2 cells upto 200 umol/L after 24 hrs by MTS assay. Format: cell-based. The note with it: hepg2, 24 h.
The test system of another data set is A549. Description: Cytotoxicity against human A549 cells upto 200 umol/L after 24 hrs by MTS assay. It is filed as cell-based. The note with it: a549, 24 h.
For data set [3], the target named is T1, Cholinesterase. Description: Inhibition of human plasma BChE upto 45 mins at 100 umol/L by Ellman's method. Format: cell-free.

The source made the active and inactive calls. The rule behind the calls is not given here.

T1 sequence (P06276 whole entry): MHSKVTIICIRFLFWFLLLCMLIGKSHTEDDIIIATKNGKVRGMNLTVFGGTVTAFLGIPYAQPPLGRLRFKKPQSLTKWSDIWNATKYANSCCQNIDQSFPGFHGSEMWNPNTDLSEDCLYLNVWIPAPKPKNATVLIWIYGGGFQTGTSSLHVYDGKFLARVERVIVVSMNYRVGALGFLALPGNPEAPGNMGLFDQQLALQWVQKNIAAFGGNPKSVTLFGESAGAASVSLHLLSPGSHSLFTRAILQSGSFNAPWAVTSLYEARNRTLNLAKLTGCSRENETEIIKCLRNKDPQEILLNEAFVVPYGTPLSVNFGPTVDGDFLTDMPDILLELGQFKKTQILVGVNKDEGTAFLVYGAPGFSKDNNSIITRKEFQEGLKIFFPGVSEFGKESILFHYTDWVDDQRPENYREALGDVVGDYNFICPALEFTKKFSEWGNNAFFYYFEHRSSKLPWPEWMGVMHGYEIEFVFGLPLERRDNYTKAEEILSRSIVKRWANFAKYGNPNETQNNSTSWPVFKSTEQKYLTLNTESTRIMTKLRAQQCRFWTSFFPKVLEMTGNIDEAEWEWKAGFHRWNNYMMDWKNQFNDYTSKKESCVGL
Acetylcholinesterase, sequence (P22303 whole entry): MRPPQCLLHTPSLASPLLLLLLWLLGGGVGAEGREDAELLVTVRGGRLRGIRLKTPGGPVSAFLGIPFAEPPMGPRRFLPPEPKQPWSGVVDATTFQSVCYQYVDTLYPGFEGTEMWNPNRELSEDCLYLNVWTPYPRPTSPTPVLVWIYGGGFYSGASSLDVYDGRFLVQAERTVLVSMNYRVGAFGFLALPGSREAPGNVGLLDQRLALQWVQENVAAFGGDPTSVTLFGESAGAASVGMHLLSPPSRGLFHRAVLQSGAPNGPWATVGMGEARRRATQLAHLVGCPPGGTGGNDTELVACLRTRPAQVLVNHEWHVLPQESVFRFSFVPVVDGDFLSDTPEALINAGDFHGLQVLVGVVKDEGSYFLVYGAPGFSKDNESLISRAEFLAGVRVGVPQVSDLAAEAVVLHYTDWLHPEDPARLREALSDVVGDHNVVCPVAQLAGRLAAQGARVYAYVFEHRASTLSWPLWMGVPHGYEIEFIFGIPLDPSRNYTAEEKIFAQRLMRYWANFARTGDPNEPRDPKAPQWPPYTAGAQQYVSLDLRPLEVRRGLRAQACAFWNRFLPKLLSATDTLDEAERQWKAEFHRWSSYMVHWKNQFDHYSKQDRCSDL

Take `O=c1cc(-c2ccc(O)cc2)oc2cc(O)cc(O)c12` [APIGENIN]: the Ki at Cholinesterase [1] came out at 37.4 microM/L; on Acetylcholinesterase, 121.6 microM/L. In data set [2], the Stability entry was “Unstable”. In addition, the IC50 with THP-1 came to 60 microM/L. The Activity result in the data set on HepG2 and in the data set on A549 was “Non-toxic” in each case.

In the case of `O=c1c(O)c(-c2ccc(O)c(O)c2)oc2cc(O)ccc12` [FISETIN], the values for the Ki on Cholinesterase [1] and on Acetylcholinesterase were 90 microM/L and 100.2 microM/L, respectively. The Stability result in data set [2] is on record as “Unstable”. In the data set with THP-1, this compound yielded an IC50 of 30 microM/L. Further, the Activity entry with HepG2 and in the data set on A549 was “Non-toxic” in each case.

On to `O=c1c(O)c(-c2ccccc2)oc2cc(O)cc(O)c12` [GALANGIN], for which the Ki on Cholinesterase [1] was determined as 6.9 microM/L; on Acetylcholinesterase it was 85.6 microM/L. Further, in data set [2], the Stability result is reported as “Unstable”. The Activity entry with HepG2 and in the data set with A549 was “Non-toxic” throughout.

Regarding `O=c1c(O)c(-c2ccc(O)cc2)oc2cc(O)cc(O)c12` [KAEMPFEROL], the Ki at Cholinesterase [1] amounted to 43.1 microM/L; at Acetylcholinesterase it was 92.8 microM/L. The Stability result in data set [2] is “Unstable”. The inhibition entry on Cholinesterase [3] is “inactive”. The Activity entry with HepG2 and in the data set with A549 was “Non-toxic” each time.

Turning to `O=c1cc(-c2ccc(O)c(O)c2)oc2cc(O)cc(O)c12` [LUTEOLIN], the results for the Ki at Cholinesterase [1] and on Acetylcholinesterase were 166.1 microM/L and 65.8 microM/L, respectively. In data set [2], the Stability result is “Unstable”. The compound further gave an IC50 with THP-1 of 70 microM/L. The Activity result in the data set with HepG2 and in the data set with A549 was “Non-toxic” each time.

As to `O=c1c(O)c(-c2cc(O)c(O)c(O)c2)oc2cc(O)cc(O)c12` [MYRICETIN], the figures for the Ki at Cholinesterase [1] and at Acetylcholinesterase were 71 microM/L and 37.8 microM/L, respectively. The inhibition entry on Cholinesterase [3] was “inactive”. Further, the Activity entry in the data set on HepG2 and in the data set with A549 was “Non-toxic” each time.

As to `O=c1c(O)c(-c2ccc(O)c(O)c2)oc2cc(O)cc(O)c12` [QUERCETIN], the values for the Ki on Cholinesterase [1] and at Acetylcholinesterase were 68 microM/L and 38.3 microM/L, respectively. The Stability entry in data set [2] is on record as “Unstable”. Besides, the Activity result in the data set with HepG2 and in the data set with A549 was “Non-toxic” throughout.

In the case of `C[C@@H]1O[C@@H](OC[C@H]2O[C@@H](Oc3c(-c4ccc(O)c(O)c4)oc4cc(O)cc(O)c4c3=O)[C@H](O)[C@@H](O)[C@@H]2O)[C@H](O)[C@H](O)[C@H]1O` [RUTIN], the figures for the Ki on Cholinesterase [1] and at Acetylcholinesterase were 501.2 microM/L and more than 300 microM/L, respectively. For the same compound, in data set [2], the Stability entry is listed as “Stable”. In addition, the Activity entry in the data set with HepG2 and with A549 was “Non-toxic” each time.

Values taken from ChEMBL document CHEMBL1154681, “Structural aspects of flavonoids as inhibitors of human butyrylcholinesterase” (Eur J Med Chem, 2010).
